The IC50 is the concentration needed to halve the response being measured.

Test [1] addresses T1, recombinant METTL3/METTL14 complex (Homo sapiens, UniProt Q86U44).
T1 construct: purchased Active Motif 311970; host or cells: Sf9 cells
Description: METTL3/14 Scintillation Proximity Assay (SPA), RNA methyltransferase activity. Particulars: 5.31 nM METTL3/14 complex, 250 nM RNA substrate, 1 μM 3H-SAM, 90 min; for compounds marked * best of the two separated forms. Format: biochemical. On the technique in general: Scintillation proximity formats need no separation of bound from free tracer.

Test [2] has as its system Caov-3 cells. As to the kind of experiment: Caov-3 cellular viability assay (ATP-Lite, 72 h). Particulars: Homo sapiens, ATP-Lite luminescence, % viability relative to DMSO. The format is cell-based. The gist of the method: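 10000 cells/well treated 72 h at 37 °C, 5% CO2, in RPMI-1640 with 10% FBS and 0.1% DMSO final. Viability by ATP-Lite One Step luminescence. Expressed as % of DMSO control, with IC50 from each compound's concentration-response curve.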

For test [3], the system named is Kasumi-1 cells. Description: Kasumi-1 cellular viability assay (ATP-Lite, 72 h). Format: cell-based. To be noted: Homo sapiens, ATP-Lite luminescence, % viability relative to DMSO. In outline:
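Kasumi-1 AML cells, 15000/well in RPMI-1640 with 10% FBS, were exposed to compound titrations (0.1% final DMSO) for 72 h at 37 °C, 5% CO2. ATP-Lite One Step luminescence gave % viability versus DMSO control, and IC50 came from the concentration-response.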

T1 sequence (Q86U44 whole entry): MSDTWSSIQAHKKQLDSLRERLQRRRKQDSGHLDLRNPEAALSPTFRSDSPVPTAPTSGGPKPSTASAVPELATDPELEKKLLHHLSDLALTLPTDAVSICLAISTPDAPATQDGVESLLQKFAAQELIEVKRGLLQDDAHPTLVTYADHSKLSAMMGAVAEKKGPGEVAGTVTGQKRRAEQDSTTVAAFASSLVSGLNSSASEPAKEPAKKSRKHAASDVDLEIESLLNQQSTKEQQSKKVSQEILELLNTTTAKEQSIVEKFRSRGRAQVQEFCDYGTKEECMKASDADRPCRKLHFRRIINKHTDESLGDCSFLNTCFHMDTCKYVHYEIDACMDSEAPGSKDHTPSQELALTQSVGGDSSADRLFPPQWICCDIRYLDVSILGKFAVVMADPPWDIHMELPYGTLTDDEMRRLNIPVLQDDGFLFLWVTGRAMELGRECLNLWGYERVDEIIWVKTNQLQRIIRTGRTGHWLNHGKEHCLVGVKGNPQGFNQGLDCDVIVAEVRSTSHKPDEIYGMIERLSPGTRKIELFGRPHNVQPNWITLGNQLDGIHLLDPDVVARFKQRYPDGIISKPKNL
T1 sequence (Q9HCE5 whole entry partner): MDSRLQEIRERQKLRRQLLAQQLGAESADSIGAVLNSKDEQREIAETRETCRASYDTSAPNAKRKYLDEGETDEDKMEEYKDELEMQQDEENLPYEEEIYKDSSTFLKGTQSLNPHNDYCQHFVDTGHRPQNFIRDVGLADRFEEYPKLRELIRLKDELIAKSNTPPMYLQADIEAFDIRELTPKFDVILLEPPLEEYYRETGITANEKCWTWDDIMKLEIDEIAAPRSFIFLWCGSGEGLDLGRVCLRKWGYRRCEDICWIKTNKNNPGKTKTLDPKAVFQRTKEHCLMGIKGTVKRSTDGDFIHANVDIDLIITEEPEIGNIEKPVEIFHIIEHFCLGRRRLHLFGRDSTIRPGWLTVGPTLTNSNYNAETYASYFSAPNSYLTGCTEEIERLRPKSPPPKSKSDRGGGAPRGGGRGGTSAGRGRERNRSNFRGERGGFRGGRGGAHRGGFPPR

With `COc1cncc(-c2cn(Cc3ccc(N4CCC[C@@H](NCC5CCC5)C4)cc3)cn2)c1` [Compound 144, (R)-N-(cyclobutylmethyl)-1-(4-((4-(5-methoxypyridin-3-yl)-1H-imidazol-1-yl)methyl)phenyl)piperidin-3-amine], the IC50 was not above 0.05 µM in test [1], 0.5 to 5 µM in test [2] and 0.5 to 5 µM in test [3].
Regarding `CN(C)c1cncc(-c2cn(C3(c4ccc(N5CCC[C@@H](NCC6CCC6)C5)cn4)COC3)nn2)c1` [Compound 149, (R)-5-(1-(3-(5-(3-((cyclobutylmethyl)amino)piperidin-1-yl)pyridin-2-yl)oxetan-3-yl)-1H-1,2,3-triazol-4-yl)-N,N-dimethylpyridin-3-amine], the half-maximal inhibitory concentration (IC50) in test [1] is not above 0.05 µM; in test [2] it was not above 0.5 µM; in test [3], not above 0.5 µM.
Turning to `CC(n1cc(-c2cncc(N3CC4(COC4)C3)n2)nn1)n1ccc(N2CCC[C@@H](NCC3CC3)C2)cc1=O` (single isomer, unassigned) [Compound 237], the half-maximal inhibitory concentration (IC50) in test [1] was not above 0.05 µM; in test [2] it was 0.5 to 5 µM; in test [3] it was 0.5 to 5 µM.
As to `CC(c1ccc(N2CCC[C@@H](NCC3CCC3)C2)nn1)n1cc(-c2cncc(N3CCCC3)c2)nn1` (stereo partly drawn) [Compound 257, (3R)—N-(cyclobutylmethyl)-1-(6-(1-(4-(5-(pyrrolidin-1-yl)pyridin-3-yl)-1H-1,2,3-triazol-1-yl)ethyl)pyridazin-3-yl)piperidin-3-amine], the figures for the half-maximal inhibitory concentration (IC50) in test [1], in test [2] and in test [3] were not above 0.05 µM, not above 0.5 µM and not above 0.5 µM, respectively.
With `CCN(C)c1cncc(-c2cn(C(C)n3ccc(N4CCC[C@@H](NCC5CCC5)C4)cc3=O)nn2)c1` (single isomer, unassigned) [Compound 151], the 50% inhibitory concentration (IC50) was not above 0.05 µM in test [1], not above 0.5 µM in test [2] and not above 0.5 µM in test [3].
Take `Cn1c(N2CCCC2)cc(NC(=O)C2(c3ccc(N4CCC[C@@H](NCC5CCC5)C4)cn3)COC2)cc1=O` [Compound 310, (R)-3-(5-(3-((cyclobutylmethyl)amino)piperidin-1-yl)pyridin-2-yl)-N-(1-methyl-2-oxo-6-(pyrrolidin-1-yl)-1,2-dihydropyridin-4-yl)oxetane-3-carboxamide]: the IC50 was not above 0.05 µM in test [1], not above 0.5 µM in test [2] and 0.5 to 5 µM in test [3].
On the same counts, the results for `CC(c1ccc(N2CCC[C@@H](NCC3CCC3)C2)cn1)n1cc(-c2cncc(C3CC3)n2)nn1` (stereo partly drawn) [Compound 292, (3R)—N-(cyclobutylmethyl)-1-(6-(1-(4-(6-cyclopropylpyrazin-2-yl)-1H-1,2,3-triazol-1-yl)ethyl)pyridin-3-yl)piperidin-3-amine] are not above 0.05 µM, 0.5 to 5 µM and 0.5 to 5 µM.
On the same counts, the results for `CC(n1cc(-c2cc(=O)n3ccccc3n2)nn1)n1ccc(N2CCC[C@@H](NCC3CCC3)C2)cc1=O` (single isomer, unassigned) [Compound 088] are not above 0.05 µM, 0.5 to 5 µM and 0.5 to 5 µM.
For `O=C(Nc1cncc(N2CCCC2)c1)C1(c2ccc(N3CCC[C@@H](NCC4CC4)C3)cn2)COC1` [Compound 195, (R)-3-(5-(3-((cyclopropylmethyl)amino)piperidin-1-yl)pyridin-2-yl)-N-(5-(pyrrolidin-1-yl)pyridin-3-yl)oxetane-3-carboxamide], the concentration for half-maximal inhibition (IC50) in test [1] is not above 0.05 µM; in test [2] it was 0.5 to 5 µM; in test [3] it was 0.5 to 5 µM.
On to `O=C(NC(c1ccc(N2CCC[C@@H](NCC3CCC3)C2)nn1)C(F)(F)F)c1cc(=O)n2ccccc2n1` (single isomer, unassigned) [Compound 065], for which the results for the half-inhibitory concentration (IC50) in test [1], in test [2] and in test [3] were not above 0.05 µM, 0.5 to 5 µM and more than 5 µM, respectively.
For the compound `CC(c1ccc(N2CCC[C@@H](NCC3CCC3)C2)nn1)n1cc(-c2cncc(N3CC4CC4C3)n2)nn1` (single isomer, unassigned) [Compound 284], the IC50 in test [1] was not above 0.05 µM; in test [2] it was not above 0.5 µM; in test [3] it was not above 0.5 µM.
On to `COc1cc(-c2cn(Cc3ccc(N4CCC[C@@H](NCC5CCC5)C4)nc3)nn2)c2cn[nH]c2c1` [Compound 040, (R)-N-(cyclobutylmethyl)-1-(5-((4-(6-methoxy-1H-indazol-4-yl)-1H-1,2,3-triazol-1-yl)methyl)pyridin-2-yl)piperidin-3-amine], for which the half-inhibitory concentration (IC50) in test [1] is not above 0.05 µM; in test [2], not above 0.5 µM; in test [3], not above 0.5 µM.
On to `COc1cc(-c2cn(Cc3ccc(N4CCCC(NCC56CC(C)(C5)C6)C4)nn3)nn2)c2cn[nH]c2c1` (stereo not drawn) [Compound 020, 1-(6-((4-(6-methoxy-1H-indazol-4-yl)-1H-1,2,3-triazol-1-yl)methyl)pyridazin-3-yl)-N-((3-methylbicyclo[1.1.1]pentan-1-yl)methyl)piperidin-3-amine], for which the half-inhibitory concentration (IC50) is not above 0.05 µM in test [1], 0.5 to 5 µM in test [2] and 0.5 to 5 µM in test [3].
As for `COc1cc(-c2cn(Cc3ccc(N4CCC[C@@H](NCC(C)(C)C)C4)nn3)nn2)c2cn[nH]c2c1` [Compound 032, (R)-1-(6-((4-(6-methoxy-1H-indazol-4-yl)-1H-1,2,3-triazol-1-yl)methyl)pyridazin-3-yl)-N-neopentylpiperidin-3-amine], the half-maximal inhibitory concentration (IC50) in test [1] was not above 0.05 µM; in test [2], not above 0.5 µM; in test [3], 0.5 to 5 µM.
In the case of `CC(n1cc(-c2cncc(NCCO)c2)nn1)n1ccc(N2CCC[C@@H](NCC3CC3)C2)cc1=O` (stereo partly drawn) [Compound 205], the IC50 was not above 0.05 µM in test [1], 0.5 to 5 µM in test [2] and more than 5 µM in test [3].
As to `c1ncc(C2CC2)cc1-c1nnc(C2(c3ccc(N4CCC[C@@H](NCC5CC5)C4)cn3)COC2)s1` [Compound 352, (R)-N-(cyclopropylmethyl)-1-(6-(3-(5-(5-cyclopropylpyridin-3-yl)-1,3,4-thiadiazol-2-yl)oxetan-3-yl)pyridin-3-yl)piperidin-3-amine], the concentration for half-maximal inhibition (IC50) was not above 0.05 µM in test [1], not above 0.5 µM in test [2] and not above 0.5 µM in test [3].
For the compound `c1ncc(C2CCC2)cc1-c1cn(C2(c3ccc(N4CCC[C@@H](NCC5CC5)C4)cn3)COC2)nn1` [Compound 312, (R)-1-(6-(3-(4-(5-cyclobutylpyridin-3-yl)-1H-1,2,3-triazol-1-yl)oxetan-3-yl)pyridin-3-yl)-N-(cyclopropylmethyl)piperidin-3-amine], the figures for the IC50 in test [1], in test [2] and in test [3] were not above 0.05 µM, not above 0.5 µM and not above 0.5 µM, respectively.
Turning to `CC(c1cnc(-c2cncc(N3CCCC3)n2)s1)n1ccc(N2CCC[C@@H](NCC3CC3)C2)cc1=O` (stereo partly drawn) [Compound 233, 4-((R)-3-((cyclopropylmethyl)amino)piperidin-1-yl)-1-(1-(2-(6-(pyrrolidin-1-yl)pyrazin-2-yl)thiazol-5-yl)ethyl)pyridin-2(1H)-one], the IC50 is not above 0.05 µM in test [1], not above 0.5 µM in test [2] and not above 0.5 µM in test [3].
On to `COc1cc(-c2cn(Cc3ccc(N4CCCC(N5CCC6(CCC6)C5)C4)nn3)nn2)c2cn[nH]c2c1` (stereo not drawn) [Compound 008, 4-(1-((6-(3-(6-azaspiro[3.4]octan-6-yl)piperidin-1-yl)pyridazin-3-yl)methyl)-1H-1,2,3-triazol-4-yl)-6-methoxy-1H-indazole], for which the IC50 in test [1] was not above 0.05 µM; in test [2] it was 0.5 to 5 µM; in test [3] it was more than 5 µM.
Take `COc1cc(-c2cn(Cn3ccc(N4CCCC(NCC5CCC5)C4)cc3=O)nn2)c2cn[nH]c2c1` (stereo not drawn) [Compound 027, 4-(3-((cyclobutylmethyl)amino)piperidin-1-yl)-1-((4-(6-methoxy-1H-indazol-4-yl)-1H-1,2,3-triazol-1-yl)methyl)pyridin-2(1H)-one]: the results for the IC50 in test [1], in test [2] and in test [3] were not above 0.05 µM, not above 0.5 µM and not above 0.5 µM, respectively.
For the compound `CC(c1ccc(N2CCC[C@@H](NCC3CCC3)C2)cn1)n1cc(-c2cncc(N3CCCC3)n2)nn1` (stereo partly drawn) [Compound 280, (3R)—N-(cyclobutylmethyl)-1-(6-(1-(4-(6-(pyrrolidin-1-yl)pyrazin-2-yl)-1H-1,2,3-triazol-1-yl)ethyl)pyridin-3-yl)piperidin-3-amine], the half-maximal inhibitory concentration (IC50) in test [1] is not above 0.05 µM; in test [2], not above 0.5 µM; in test [3], not above 0.5 µM.
As for `CC(n1cc(-c2cncc(N3CC[C@@H](F)C3)n2)nn1)n1ccc(N2CCC[C@@H](NCC3CC3)C2)cc1=O` (single isomer, unassigned) [Compound 245], the half-inhibitory concentration (IC50) in test [1] was not above 0.05 µM; in test [2] it was not above 0.5 µM; in test [3], not above 0.5 µM.
`COc1cncc(-c2cn(C(C)c3ccc(N4CCC[C@@H](NCC5CCC5)C4)cn3)nn2)c1` (single isomer, unassigned) [Compound 073]: the results for the half-maximal inhibitory concentration (IC50) in test [1], in test [2] and in test [3] were not above 0.05 µM, 0.5 to 5 µM and 0.5 to 5 µM, respectively.
`c1ccn(-c2cncc(-c3cn(C4(c5ccc(N6CCC[C@@H](NCC7CCC7)C6)cn5)COC4)nn3)n2)c1` [Compound 295, (R)-1-(6-(3-(4-(6-(1H-pyrrol-1-yl)pyrazin-2-yl)-1H-1,2,3-triazol-1-yl)oxetan-3-yl)pyridin-3-yl)-N-(cyclobutylmethyl)piperidin-3-amine]: the half-inhibitory concentration (IC50) is not above 0.05 µM in test [1], 0.5 to 5 µM in test [2] and not above 0.5 µM in test [3].
As to `O=C(Nc1cncc(N2CCCC2)n1)C1(c2ccc(N3CCC[C@@H](NCC4CCC4)C3)nc2)COC1` [Compound 319, (R)-3-(6-(3-((cyclobutylmethyl)amino)piperidin-1-yl)pyridin-3-yl)-N-(6-(pyrrolidin-1-yl)pyrazin-2-yl)oxetane-3-carboxamide], the half-inhibitory concentration (IC50) in test [1] was not above 0.05 µM; in test [2], not above 0.5 µM; in test [3], not above 0.5 µM.
